In ChEMBL document CHEMBL1135003, “Synthesis of aglycon analogues of sarmentosin and their bioactivity of lymphocyte proliferation” (2002) one finds Activity data, which are given here for eight molecules.

What all share (format): functional
Experiment [1] is described as follows: In vitro effect on the proliferation of B lymphocytes of mouse splenocytes at 0.2 umol/L to show the antibody formation by [3H]thymidine incorporation. (Uptake of a labelled nucleoside into DNA is a usual measure of proliferation.)
Experiment [2] can be described thus: In vitro effect on the proliferation of B lymphocytes of mouse splenocytes at 2.0 umol/L to show the antibody formation by [3H]thymidine incorporation.
Experiment [3] in a line: In vitro effect on the proliferation of B lymphocytes of mouse splenocytes at 20 umol/L to show the antibody formation by [3H]thymidine incorporation.
Experiment [4] in a line: In vitro effect on the proliferation of T lymphocytes of mouse splenocytes at 20 umol/L to show the cell-mediated immunity by [3H]thymidine incorporation.
A short description of experiment [5]: In vitro effect on the proliferation of T lymphocytes of mouse splenocytes at 0.2 umol/L to show the cell-mediated immunity by [3H]thymidine incorporation.
Experiment [6] can be described thus: In vitro effect on the proliferation of T lymphocytes of mouse splenocytes at 2 umol/L to show the cell-mediated immunity by [3H]thymidine incorporation.

Regarding `N#C/C(=C\COC(=O)c1ccc(Cl)cc1Cl)CO`, the Activity is 68% in experiment [1]; 69% in experiment [2]; 73% in experiment [3]; 131% in experiment [4]; 119% in experiment [5]; 94% in experiment [6].

For `N#C/C(=C\COC(=O)/C=C/c1ccccc1)CO`, the Activity in experiment [1] is given as 96%; in experiment [2] it was 69%; in experiment [3] it was 20%; in experiment [4], 38%; in experiment [5], 80%; in experiment [6], 62%.

As to `N#C/C(=C\COc1ccccc1)CO`, the Activity in experiment [1] is 51%; in experiment [2], 48%; in experiment [3] it was 45%; in experiment [4], 131%; in experiment [5], 100%; in experiment [6], 113%.

As for `COc1ccc(OC/C=C(\C#N)CO)cc1`, the Activity was found to be 81% in experiment [1]; 77% in experiment [2]; 79% in experiment [3]; 80% in experiment [4]; 101% in experiment [5]; 114% in experiment [6].

Regarding `N#C/C(=C\COC(=O)c1ccc(F)cc1Cl)CO`, the Activity turned out to be 151% in experiment [1]; 151% in experiment [2]; 113% in experiment [3]; 29% in experiment [4]; 123% in experiment [5]; 98% in experiment [6].

As to `N#C/C(=C\COC(=O)c1ccccc1)CO`, the Activity in experiment [1] is 137%; in experiment [2], 73%; in experiment [3], 67%; in experiment [4], 23%; in experiment [5], 97%; in experiment [6], 68%.

In the case of `COc1ccc(C(=O)OC/C=C(\C#N)CO)cc1`, the Activity came to 109% in experiment [1]; 86% in experiment [2]; 31% in experiment [3]; 25% in experiment [4]; 100% in experiment [5]; 63% in experiment [6].

For `COc1ccc(COC/C=C(\C#N)CO)cc1`, the Activity in experiment [1] is reported as 169%; in experiment [2], 71%; in experiment [3] it was 38%; in experiment [4], 37%; in experiment [5] it was 93%; in experiment [6] it was 54%.
